Legend:
[1] = target: T1, human GST-p38 kinase alpha (Homo sapiens, UniProt Q16539); experiment: p38 kinase in vitro assay, second format, phosphorylation of EGFRP with 33P-ATP; format: biochemical; settings: Table 10, 10% DMSO; @ 1.0 hour; read-out: p38α Kinase Assay IC50
T1 construct: The coding region of the human p38a cDNA was obtained by PCR-amplification from RNA isolated from the human monocyte cell line THP.1; made in house; host or cells: E. coli DH10B
How it was run: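 Activated human GST-p38α (pre-activated with GST-MKK6, 1 h, 30 °C) phosphorylates EGFR 21-mer peptide (200 μM) with 50 μM ATP plus γ-33P-ATP, pH 7.5, 60 min at room temperature. Unreacted ATP removed by AG 1×8 resin; supernatant scintillation-counted.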

TNF-α [2] = experiment: Rat assay: LPS-challenged rats, serum TNF-α by ELISA; format: in vivo; settings: Rattus norvegicus, po; for inhibition in vivo at 5 mg/kg: Table 10, dose 5.0 mg/kg; for inhibition in vivo at 20 mg/kg: Table 10, dose 20.0 mg/kg
TNF-α [3] = experiment: LPS stimulation of TNF production by U937 cells; format: cell-based, human; settings: Homo sapiens, U-937, LPS-stimulated U937 cells; read-out: U937 Cell Assay IC50
How it was run: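 PMA-differentiated human U937 cells (20 ng/ml PMA, 24 h, then 24-48 h rest) at 2 million cells/ml, 0.1% DMSO final, stimulated with E. coli LPS (100 ng/ml final) for 4 h at 37° C. TNF-α in medium measured by ELISA; IC50 in μM.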

human p38 kinase alpha = target: T2, human p38 kinase alpha (Homo sapiens, UniProt Q16539); experiment: p38 kinase in vitro assay, phosphorylation of biotinylated PHAS-I with gamma 32P-ATP; format: biochemical; settings: activated human p38 kinase alpha, PHAS-I substrate, 50 μM unlabeled ATP; read-out: p38 kinase IC50
T2 construct: The coding region of the human p38a cDNA was obtained by PCR-amplification from RNA isolated from the human monocyte cell line THP.1; GST (N); made in house; host or cells: E. coli DH10B
T2 sequence (Q16539 whole entry): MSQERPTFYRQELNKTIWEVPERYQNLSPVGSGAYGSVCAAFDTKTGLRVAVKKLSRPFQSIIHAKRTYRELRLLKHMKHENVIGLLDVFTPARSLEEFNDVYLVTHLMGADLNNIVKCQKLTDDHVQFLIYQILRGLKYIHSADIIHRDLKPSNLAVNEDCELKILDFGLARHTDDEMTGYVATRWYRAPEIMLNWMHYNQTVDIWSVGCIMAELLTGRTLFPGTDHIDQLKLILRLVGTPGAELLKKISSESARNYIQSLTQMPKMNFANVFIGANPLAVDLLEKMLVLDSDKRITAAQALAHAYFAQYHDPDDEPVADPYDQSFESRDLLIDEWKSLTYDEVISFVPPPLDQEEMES
How it was run: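 MKK6-activated human p38α phosphorylates biotinylated PHAS-I with γ-32P-ATP in 25 mM HEPES pH 7.5, 10 mM Mg acetate, 50 μM unlabeled ATP, 1% DMSO, 30 °C for 1 h or overnight. Compounds at 100–0.001 μM (10-fold steps, triplicate); substrate captured on streptavidin filter plates and counted by scintillation.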

human TNF = experiment: TNF inhibition: human whole blood assay; format: cell-based; settings: Homo sapiens, Table 10, human whole blood, LPS; read-out: TNF Inhibition-Human Whole Blood Assay
[4] = read-out: Rat LPS Assay % Inhibition

T1 sequence (Q16539 whole entry): as above

| IC50 [1] | melting point | SMILES | other results |
| --- | --- | --- | --- |
|  | 218 to 219 °C | Fc1ccc(-c2[nH]nc(Nc3ccccc3)c2-c2ccncc2)cc1 [Example A-20, 5-(4-Fluorophenyl)-N-phenyl-4-(4-pyridinyl)-1H-pyrazol-3-amine] | IC50 (TNF-α [3]): 1.09 µM |
|  | 265 to 267 °C | Fc1ccc(-c2[nH]nc(-c3ccccc3)c2-c2ccncc2)cc1 [Example A-21, 4-[5-(4-fluorophenyl)-3-phenyl-1H-pyrazol-4-yl]pyridine] | IC50 (TNF-α [3]): 0.077 µM |
|  | 304 °C | Fc1ccc(-c2n[nH]c(-c3ccncc3)c2-c2ccncc2)cc1 [Example A-23, 4-[3-(4-fluorophenyl)-4-(4-pyridinyl)-1H-pyrazol-5-yl]pyridine] | IC50 (human p38 kinase alpha): 1.5 µM |
| 29.7 µM | 126.5 to 126.6 °C | Cc1ccccc1C(=O)C(=C1SCS1)c1ccncc1 [Example A-392] |  |
| 2.32 µM | 159.6 to 159.7 °C | O=C(C(=C1SCS1)c1ccncc1)c1cccc(Br)c1 [Example A-393] |  |
| 9.11 µM | 198.8 to 198.9 °C | Cc1ccc(C(=O)C(=C2SCS2)c2ccncc2)cc1C [Example A-394] |  |
| 30 µM | 191.5 to 192.5 °C | COc1ccc(C(=O)C(=C2SCS2)c2ccncc2)cc1Cl [Example A-397] |  |
| 22.9 µM | 203 to 204.1 °C | COc1ccc(C(=O)C(=C2SCS2)c2ccncc2)cc1 [Example A-399] |  |
| 28.9 µM | 197.3 to 202.2 °C | CN(C)c1ccc(C(=O)C(=C2SCS2)c2ccncc2)cc1 [Example A-402] |  |
| 0.12 µM | > 300 °C | C=Cc1ccc(-c2[nH]nc(N3CCN(C)CC3)c2-c2ccncc2)cc1 [Example A-418, 1-[5-(4-ethenylphenyl)-4-(4-pyridinyl)-1H-pyrazol-3-yl]-4-methylpiperazine] |  |
|  | > 300 °C (dec.) | CN1CCN(c2n[nH]c(-c3ccc(N(C)C)cc3)c2-c2ccncc2)CC1 [Example A-421, 1-[5-(4-dimethylaminophenyl)-4-(4-pyridinyl)-1H-pyrazol-3-yl]-4-methylpiperazine] |  |
|  | 223.4 to 224.3 °C | CN1CCN(c2n[nH]c(-c3cccc(C#N)c3)c2-c2ccncc2)CC1 [Example A-422, 1-[5-(3-cyanophenyl)-4-(4-pyrdinyl)-1H-pyrazol-3-yl]4-methylpiperazine] |  |
|  | 275.6 to 281.9 °C | CSc1ccc(-c2[nH]nc(N3CCN(C)CC3)c2-c2ccncc2)cc1 [Example A-423, 1-[5-(4-thiomethoxyphenyl)-4-(4-pyridinyl)-1H-pyrazol-3-yl]-4-methylpiperazine] |  |
|  | 212.6 to 213.7 °C | CN1CCN(c2n[nH]c(-c3cccc(C(F)(F)F)c3)c2-c2ccncc2)CC1 [Example A-424] |  |
|  | 240.5 °C (dec.) | CN1CCN(c2n[nH]c(-c3ccc(C(F)(F)F)cc3)c2-c2ccncc2)CC1 [Example A-425] |  |
|  | 199.7 °C (dec.) | CN1CCN(c2n[nH]c(-c3cccs3)c2-c2ccncc2)CC1 [Example A-426] |  |
| 56.3 µM | 195.4 to 196.8 °C | COC(=O)CNc1[nH]nc(-c2ccc(Cl)cc2)c1-c1ccncc1 [Example A-429] |  |
|  | 95.5 to 97.3 °C | O=C(Cc1ccncc1)c1ccc(Cl)cc1 [Example A-431] |  |

| IC50 [1] | melting point | SMILES | other results |
| --- | --- | --- | --- |
|  | 80.2 to 82.1 °C | CSC(SC)=C(C(=O)c1ccc(F)cc1)c1ccncc1 [Example A-432] |  |
|  | 87.6 to 88.2 °C | CSC(SC)=C(C(=O)c1ccc(Cl)cc1)c1ccncc1 [Example A-433] |  |
| 5.84 µM | 249.9 °C | CSc1[nH]nc(-c2ccc(F)cc2)c1-c1ccncc1 [Example A-434] |  |
|  | 198.9 to 199.9 °C | Clc1ccc(-c2n[nH]c(OCCN3CCOCC3)c2-c2ccncc2)cc1 [Example A-440] |  |
| 6.99 µM | 229.1 to 229.2 °C | COc1ccc(COc2[nH]nc(-c3ccc(Cl)cc3)c2-c2ccncc2)cc1 [Example A-444] |  |
| > 100 µM | 118.5 to 120.6 °C | COc1ccc(CSC(SCc2ccc(OC)cc2)=C(C(=O)c2ccc(F)cc2)c2ccncc2)cc1 [Example A-450] |  |
| 10.2 µM | 266.3 to 268.9 °C | Sc1[nH]nc(-c2ccc(Cl)cc2)c1-c1ccncc1 [Example A-453] |  |
| 8.41 µM | 261.3 to 263.9 °C | Fc1ccc(-c2n[nH]c(S)c2-c2ccncc2)cc1 [Example A-454] |  |
| > 100 µM | 215.8 to 215.9 °C | CC(C)(C)OC(=O)N1CCC([S+]([O-])c2[nH]nc(-c3ccc(Cl)cc3)c2-c2ccncc2)CC1 (centres unmarked) [Example A-464] |  |
| > 100 µM | 228 to 230.8 °C | CC(C)(C)OC(=O)N1CCC(S(=O)(=O)c2[nH]nc(-c3ccc(Cl)cc3)c2-c2ccncc2)CC1 [Example A-465] |  |
| 20.1 µM | 189.5 °C | COc1ccc(C[S+]([O-])c2[nH]nc(-c3ccc(F)cc3)c2-c2ccncc2)cc1 (centres unmarked) [Example A-466] |  |
| 21.4 µM | 241.9 to 242 °C | COc1ccc(CS(=O)(=O)c2[nH]nc(-c3ccc(F)cc3)c2-c2ccncc2)cc1 [Example A-467] |  |
| 10.4 µM | 257.7 °C | Clc1ccc(-c2n[nH]c(SCc3nc4ccccc4[nH]3)c2-c2ccncc2)cc1 [Example A-470] |  |
|  | 224.2 to 225.9 °C | O=C1OCCC1CSc1[nH]nc(-c2ccc(Cl)cc2)c1-c1ccncc1 (centres unmarked) [Example A-472] | IC50 (human TNF): > 25 µM |
| 0.34 µM | 211.1 to 212.8 °C | CC(C#N)Sc1[nH]nc(-c2ccc(Cl)cc2)c1-c1ccncc1 (centres unmarked) [Example A-477] |  |
|  | 284.3 to 284.4 °C | Cc1ccc(S(=O)(=O)Nc2[nH]nc(-c3ccc(Cl)cc3)c2-c2ccncc2)cc1 [Example A-484] |  |
|  | > 300 °C (dec.) | CN1CCN(c2[nH]nc(C3CCCCC3)c2-c2ccncc2)CC1 [Example A-485, 1-[cyclohexyl-4-(4-pyridinyl)-1H-pyrazol-3-yl]-4-methylpiperazine] |  |

| SMILES | IC50 [1] | melting point | other results |
| --- | --- | --- | --- |
| Cc1cccc(-c2n[nH]c(N3CCN(C)CC3)c2-c2ccncc2)c1 [A-389, Step 4] | 0.16 µM | 261.9 to 262 °C | inhibition in vivo at 5 mg/kg (TNF-α [2]; [4]): 55%; inhibition in vivo at 20 mg/kg (TNF-α [2]): 94% |
| Cc1ccc(-c2n[nH]c(N3CCN(C)CC3)c2-c2ccncc2)cc1C [Example A-410, 1-[5-(3,4-dimethylphenyl)-4-(4-pyridinyl)-1H-pyrazol-3-yl]-4-methylpiperazine] | 0.21 µM | 270.9 to 272.7 °C | inhibition in vivo at 5 mg/kg (TNF-α [2]; [4]): 11%; inhibition in vivo at 20 mg/kg (TNF-α [2]): 0% |
| CN1CCN(c2[nH]nc(-c3ccc(OC(F)(F)F)cc3)c2-c2ccncc2)CC1 [Example A-411, 1-[5-(4-trifluoromethoxyphenyl)-4-(4-pyridinyl)-1H-pyrazol-3-yl]-4-methylpiperazine] | 3.37 µM | 221 to 221.2 °C | inhibition in vivo at 5 mg/kg (TNF-α [2]; [4]): 40%; inhibition in vivo at 20 mg/kg (TNF-α [2]): 0% |
| CN1CCN(c2n[nH]c(-c3ccc(C#N)cc3)c2-c2ccncc2)CC1 [Example A-412, 1-[5-(4-cyanophenyl)-4-(4-pyridinyl)-1H-pyrazol-3-yl]-4-methylpiperazine] | 2.15 µM | > 300 °C | inhibition in vivo at 5 mg/kg (TNF-α [2]; [4]): 0%; inhibition in vivo at 20 mg/kg (TNF-α [2]): 0% |
| CCc1ccc(-c2[nH]nc(N3CCN(C)CC3)c2-c2ccncc2)cc1 [Example A-419, 1-[5-(4-ethylphenyl)-4-(4-pyridinyl)-1H-pyrazol-3-yl]-4-methylpiperazine] | 1.31 µM | 221.6 to 222.6 °C | inhibition in vivo at 5 mg/kg (TNF-α [2]; [4]): 24%; inhibition in vivo at 10 mg/kg (TNF-α [2]; Table 10, dose 10.0 mg/kg): 58% |
| Cc1cc(-c2[nH]nc(N3CCN(C)CC3)c2-c2ccncc2)ccc1Br [Example A-420, 1-[5-(4-bromo-3-methylphenyl)-4-(4-pyrdinyl)-1H-pyrazol-3-yl]-4-methylpiperazine] | 0.32 µM | 294.7 °C (dec.) | inhibition in vivo at 5 mg/kg (TNF-α [2]; [4]): 47%; inhibition in vivo at 20 mg/kg (TNF-α [2]): 91% |
| O=C(O)CNc1[nH]nc(-c2ccc(Cl)cc2)c1-c1ccncc1.[Li+] [Example A-430] | > 100 µM | > 300 °C |  |
| CN1CCC(Sc2[nH]nc(-c3ccc(Cl)cc3)c2-c2ccncc2)CC1 [Example A-468, 3-(4-chlorophenyl)-5-[(1-methylpiperidin-4-yl)-thio]-4-pyridin-4-yl-1H-pyrazole] | 0.3 µM | 227.7 °C | inhibition in vivo at 1 mg/kg (TNF-α [2]; Table 10, dose 1.0 mg/kg, read-out: Rat LPS Assay % Inhibition): 46%; inhibition in vivo at 5 mg/kg (TNF-α [2]; [4]): 50%; inhibition in vivo at 20 mg/kg (TNF-α [2]): 94% |
